The target in assay [1] is T1, Amyloid-beta precursor protein (Homo sapiens, UniProt P05067). As to the kind of experiment: Inhibition of amyloid beta 1 to 42 aggregation (unknown origin) incubated for 24 hrs by inverted fluorescence microscopic analysis relative to control. As to conditions: concentration not given here.
In assay [2] the target is T1, Amyloid-beta precursor protein. In words: Inhibition of amyloid beta 1 to 42 aggregation (unknown origin) incubated for 24 hrs by inverted fluorescence microscopic analysis.
The target is the same in assay [3]. As to the kind of experiment: Inhibition of amyloid beta 1 to 42 aggregation (unknown origin) incubated for 24 hrs by ThT fluorescence assay.
For assay [4] the target is unchanged. As to the kind of experiment: Inhibition of amyloid beta 1 to 42 aggregation (unknown origin) incubated for 24 hrs by ThT fluorescence assay relative to control. As to conditions: concentration not given here.

The structures appear in SMILES notation.

T1 sequence (P05067 whole entry): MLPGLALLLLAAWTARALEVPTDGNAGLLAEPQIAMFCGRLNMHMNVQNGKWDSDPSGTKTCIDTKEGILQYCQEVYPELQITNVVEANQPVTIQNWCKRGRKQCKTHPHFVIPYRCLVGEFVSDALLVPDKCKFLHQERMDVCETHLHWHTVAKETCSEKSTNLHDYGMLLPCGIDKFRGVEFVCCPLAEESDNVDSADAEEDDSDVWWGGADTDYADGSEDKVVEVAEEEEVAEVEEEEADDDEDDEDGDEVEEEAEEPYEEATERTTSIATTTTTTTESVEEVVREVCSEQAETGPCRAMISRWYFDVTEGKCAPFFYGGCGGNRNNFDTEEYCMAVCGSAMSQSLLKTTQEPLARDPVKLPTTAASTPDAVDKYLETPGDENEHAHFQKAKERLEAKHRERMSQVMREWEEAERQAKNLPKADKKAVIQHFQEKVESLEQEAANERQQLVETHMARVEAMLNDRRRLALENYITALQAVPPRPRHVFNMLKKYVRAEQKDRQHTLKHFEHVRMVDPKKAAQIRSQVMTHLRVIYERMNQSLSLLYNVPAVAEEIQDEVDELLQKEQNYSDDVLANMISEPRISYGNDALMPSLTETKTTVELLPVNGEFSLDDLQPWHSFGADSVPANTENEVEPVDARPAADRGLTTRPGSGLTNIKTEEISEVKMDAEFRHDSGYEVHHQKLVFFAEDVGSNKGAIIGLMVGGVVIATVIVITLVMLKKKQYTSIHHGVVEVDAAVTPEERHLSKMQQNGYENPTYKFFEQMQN

Compound `O=C(O)c1cc(O)c(O)c(O)c1` [GALLIC ACID] displayed an inhibition in assay [1] of 92%. The values for the EC50 in assay [2] and in assay [3] were 18.8 µM and 9.99 µM, respectively.
On to `O=c1oc2c(O)c(O)cc3c(=O)oc4c(O)c(O)cc1c4c23` [ELLAGIC ACID], for which the inhibition in assay [1] was 0.15%; in assay [4], < 0.01%. The 50% effective concentration (EC50) in assay [2] is 563 µM.
Turning to `O=C1O[C@H]2[C@@H]3OC(=O)c4cc(O)c(O)c(O)c4-c4c(cc(O)c(O)c4O)C(=O)OC[C@H]2O[C@@H](OC(=O)c2cc(O)c(O)c(O)c2)[C@@H]3OC(=O)c2cc(O)c(O)c3c2[C@@H]2C1=CC(=O)[C@](O)(O3)C2(O)O` [GERANIIN], the figures for the EC50 in assay [2] and in assay [3] were 7.03 µM and 10.5 µM, respectively.
Take `O=C(O)c1cc(O)c(O)c(O)c1-c1c(C(=O)O)cc(O)c(O)c1O`: the inhibition in assay [1] and in assay [4] was < 0.01% throughout. In assay [2], this compound showed an EC50 of 562 µM.
Take `O=C(O[C@@H]1O[C@@H]2COC(=O)c3cc(O)c(O)c(O)c3-c3c(cc(O)c(O)c3O)C(=O)O[C@H]([C@H]1O)[C@@H]2O)c1cc(O)c(O)c(O)c1` [CORILAGIN]: the inhibition in assay [1] is 25%; in assay [4], 14%. The concentration giving a half-maximal response (EC50) is 5.04 µM in assay [2] and 14 µM in assay [3].

By inhibition is commonly meant the drop in the measured response relative to a control, in per cent. The EC50 is the concentration at which the effect is half-maximal. Higher therefore signals lower potency in that assay.

The record behind these values is ChEMBL document CHEMBL5126586, “Chemical analysis of amyloid β aggregation inhibitors derived from Geranium thunbergii” (Bioorg Med Chem, 2022).
